Reference: PubChem BioAssay (NCI)
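Following 48 hours of exposure in 96-well plates, responses at five concentrations were used to interpolate endpoints linearly. GI50: concentration for 50% inhibition of growth. TGI is the concentration that stops growth completely.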

Columns and labels:
Experiment in all cases: NCI tumour cell line growth inhibition, 48 h
DMS 114 small cell lung = tested on: DMS 114 small cell lung
M19-MEL melanoma = tested on: M19-MEL melanoma
LXFL 529 NSCLC = tested on: LXFL 529 NSCLC
ACHN renal = tested on: ACHN renal
SNB-78 CNS = tested on: SNB-78 CNS
SR leukemia = tested on: SR leukemia
DMS 273 small cell lung = tested on: DMS 273 small cell lung
PC-3 prostate = tested on: PC-3 prostate
DU-145 prostate = tested on: DU-145 prostate
MCF7 breast = tested on: MCF7 breast
HOP-18 NSCLC = tested on: HOP-18 NSCLC
P388/ADR leukemia = tested on: P388/ADR leukemia
MDA-MB-231 breast = tested on: MDA-MB-231 breast
BT-549 breast = tested on: BT-549 breast
MDA-N = tested on: MDA-N
MDA-MB-435 = tested on: MDA-MB-435

Row | Compound | TGI (DMS 114 small cell lung) [µM] | TGI (M19-MEL melanoma) [µM] | TGI (LXFL 529 NSCLC) [µM] | TGI (ACHN renal) [µM] | TGI (SNB-78 CNS) [µM] | TGI (SR leukemia) [nM] | TGI (DMS 273 small cell lung) [µM] | GI50 (PC-3 prostate) [nM] | TGI (PC-3 prostate) [µM] | GI50 (DU-145 prostate) [nM] | TGI (DU-145 prostate) [µM] | GI50 (ACHN renal) [µM] | TGI (MCF7 breast) [µM] | TGI (HOP-18 NSCLC) [µM] | TGI (P388/ADR leukemia) [µM] | TGI (MDA-MB-231 breast) [µM] | TGI (BT-549 breast) [µM] | TGI (MDA-N) [µM] | TGI (MDA-MB-435) [µM] | GI50 (MCF7 breast) [pM]
1 | CC(OC(C)(C)C)[C@H](NC(=O)OCC(Cl)(Cl)Cl)C(=O)O (stereo partly specified) | > 100 | > 100 | > 100 | > 100 | > 100 | > 100000 | > 100 |  |  |  |  |  |  |  |  |  |  |  |  | 
2 | O=C(Cn1c[n+](CC(=O)c2ccc(-c3ccccc3)cc2)c2ccccc21)Nc1cccc2cccnc12 |  |  |  | 10.7 |  |  |  | 1030 | 2.29 | 2220 | 5.71 | 3.06 |  |  |  |  |  |  |  | 
3 | O=C(O)CCC(NC(=O)c1ccc(Nc2nc3cc(C(F)(F)F)ccc3nc2-c2ccccc2)cc1)C(=O)O (stereo unspecified) | > 100 | > 100 |  |  | > 100 |  | 46.6 |  |  |  |  |  | > 100 | > 100 | > 100 |  |  |  |  | 
4 | COc1ccc2cc(/C=N/NC(=O)Nc3ccccc3)ccc2c1 |  |  |  |  |  | > 100000 |  |  | > 100 |  | > 100 |  | > 100 |  |  | > 100 | > 100 | > 100 | > 100 | 
5 | CC1(CCOCc2ccccc2)NC(=O)NC1=O (stereo unspecified) |  |  |  | > 100 |  | > 100000 |  |  | > 100 |  | > 100 |  |  |  |  | > 100 | > 100 | > 100 | > 100 | 
6 | CC1(C)N=C(N)N=C(N)N1c1ccc(CCc2ccccc2)cc1 | 52.5 | 38.7 |  |  | > 100 |  | 17.5 |  |  |  |  |  | > 76.7 | 97.3 | > 100 |  |  |  |  | 
7 | NCc1ccccc1-c1c2nc(c(-c3ccccc3CN)c3ccc([nH]3)c(-c3ccccc3CN)c3nc(c(-c4ccccc4CN)c4ccc1[nH]4)C=C3)C=C2 |  | 50.7 | 46.5 | 35.3 | 40.9 |  | 46.4 |  |  |  |  |  |  | 8.81 |  |  |  |  |  | 
8 | CCC(/C=C/C1OC(=O)C=CC1C)=C\C(C)C/C=C/C(C)=C/C(C)C(=O)C(C)C(O)C(C)C/C(C)=C/C(=O)O (stereo unspecified) | 4.18 | 6.49 |  |  | 14.3 | 0.0228 | 27.1 |  |  |  |  |  |  | 16.3 |  |  |  | 0.000118 | 2.64e-05 | < 1
9 | Cc1[nH]nc(C(F)(F)F)c1N=NN1CCOCC1 |  |  |  | 17.7 |  | 2770 |  |  | 24.8 |  | 13.4 |  | 21 |  |  | 27.1 | 25.1 |  | 26 | 
